This note sets out measurements from patent US20220389061A1, “IMMUNOMODULATORS” (priority 2019, published 2022).

pIC50: −log10 of the molar value. Starred links: 1 amine or outer side, 2 acyl side, 3 side chain; linkers in the order of their positions; H or OH if unused. Positions of bridges follow the written chain, without caps; N, C: chain ends. Non-standard residues stand in square brackets, D forms with d. Residues, ends and D or L forms follow the SMILES beside them. Groups on a side chain read outwards from the residue. *: point of attachment. Trp(1-CH2CO2Me) = COC(=O)Cn1cc(C[C@H](N)C(=O)O)c2ccccc21; Trp(1-CH2COOH) = N[C@@H](Cc1cn(CC(=O)O)c2ccccc12)C(=O)O; Benzoyl(4-F,3-CF3) = O=C(c1ccc(F)c(C(F)(F)F)c1)*; Pyrazinecarbonyl = O=C(c1cnccn1)*; Hyp = O=C(O)[C@@H]1C[C@@H](O)CN1; X25 = FC(F)(F)Oc1ccc(NC(=S)*)cc1; X53 = Cc1nc(-c2cccnc2)sc1C(=O)*; X69 = c1ccc(-c2ccc(N*)cc2)cc1; NMeNle = CCCC[C@H](NC)C(=O)O; X22 = c1ccc(N(c2ccccc2)*)cc1; NMeA = CN[C@@H](C)C(=O)O; Dab = NCC[C@H](N)C(=O)O; Dap = NC[C@H](N)C(=O)O; X26 = S=C(Nc1ccccc1)*; CO = O=C([*:1])[*:2]; Bz = O=C(c1ccccc1)*; NHPh = c1ccc(N*)cc1

In one assay the target is T1, PD-1/PD-L1 (Homo sapiens, UniProt Q9NZQ7).
T1 construct: TVMV protease site linker (C); made in house; host or cells: HEK293T cells
T1 sequence (Q9NZQ7 18-239): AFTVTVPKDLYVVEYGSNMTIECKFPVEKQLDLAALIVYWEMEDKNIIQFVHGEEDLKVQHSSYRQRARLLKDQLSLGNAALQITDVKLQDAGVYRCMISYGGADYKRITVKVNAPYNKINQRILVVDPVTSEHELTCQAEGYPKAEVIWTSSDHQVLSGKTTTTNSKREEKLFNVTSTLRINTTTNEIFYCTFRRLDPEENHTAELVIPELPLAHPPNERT
The experiment in a line: PD-1/PD-L1 Homogenous Time-Resolved Fluorescence (HTRF) binding assay.
Conditions: not given
From the text: The ability of the compounds of formula (I) to bind to PD-L1 was investigated using a PD-1/PD-L1 Homogenous Time-Resolved Fluorescence (HTRF) binding assay.
The interaction of PD-1 and PD-L1 can be assessed using soluble, purified preparations of the extracellular domains of the two proteins. The PD-1 and PD-L1 protein extracellular domains were expressed as fusion proteins with detection tags, for PD-1, the tag was the Fc portion of Immunoglobulin (PD-1-Ig) and for PD-L1 it was the 6 histidine motif (PD-L1-His). All binding studies were performed in an HTRF assay buffer consisting of dPBS supplemented with 0.1% […] bovine serum albumin and 0.05% (v/v) Tween-20. For the h/PD-L1-His binding assay, inhibitors were pre-incubated with PD-L1-His (10 nM final) for 15 m in 4 μl of assay buffer, followed by addition of PD-1-Ig (20 nM final) in 1 μl of assay buffer and further incubation for 15 m. HTRF detection was achieved using europium crypate-labeled anti-Ig (1 nM final) and allophycocyanin (APC) labeled anti-His (20 nM final). Antibodies were diluted in HTRF detection buffer and 5 μl was dispensed on top of the binding reaction. […] Additional binding assays were established between the human proteins PD-1-Ig/PD-L2-His (20 & 5 nM, respectively) and CD80-His/PD-L1-Ig (100 & 10 nM, respectively). […]
A general note: Time-resolved FRET reads energy transfer from a long-lived donor to a nearby acceptor.
Consider `CCCC[C@H]1C(=O)N(C)[C@@H](CCCC)C(=O)N[C@@H](CC(C)C)C(=O)N[C@H](C(=O)NCC(N)=O)CSCC(=O)N[C@@H](Cc2ccc(O)cc2)C(=O)N(C)[C@@H](C)C(=O)N[C@@H](CC(N)=O)C(=O)N2CCC[C@H]2C(=O)N[C@@H](CNC(=O)c2ccccc2)C(=O)N[C@@H](CC(C)C)C(=O)N2C[C@H](O)C[C@H]2C(=O)N[C@@H](Cc2c[nH]c3ccccc23)C(=O)N[C@@H](CCNC(=O)c2ccccc2)C(=O)N[C@@H](Cc2cn(CC(=O)OC)c3ccccc23)C(=O)N1C` [Example 1006] ({CH2CO}-Y[NMeA]NP[Dap](Bz)L[Hyp]W[Dab](Bz)[Trp(1-CH2CO2Me)][NMeNle][NMeNle]LCG-NH2; thioether N-14), for which the pIC50 (commonly −log10 of the IC50, conventionally taken in molar units) was 9.70.

`CCCC[C@H]1C(=O)N(C)[C@@H](CCCC)C(=O)N[C@@H](CC(C)C)C(=O)N[C@H](C(=O)NCC(N)=O)CSCC(=O)N[C@@H](Cc2ccc(O)cc2)C(=O)N(C)[C@@H](C)C(=O)N[C@@H](CC(N)=O)C(=O)N2CCC[C@H]2C(=O)N[C@@H](CNC(=O)Nc2ccc(-c3ccccc3)cc2)C(=O)N[C@@H](CC(C)C)C(=O)N2C[C@H](O)C[C@H]2C(=O)N[C@@H](Cc2c[nH]c3ccccc23)C(=O)N[C@@H](CCNC(=O)Nc2ccc(-c3ccccc3)cc2)C(=O)N[C@@H](Cc2cn(CC(=O)O)c3ccccc23)C(=O)N1C` [Example 1011] ({CH2CO}-Y[NMeA]NP[Dap]([CO-X69])L[Hyp]W[Dab]([CO-X69])[Trp(1-CH2COOH)][NMeNle][NMeNle]LCG-NH2; thioether N-14): the negative-log IC50 (pIC50) was 7.77.

Still in this assay, the particulars now being: PD-L1-His 10 nM pre-incubated with inhibitor, PD-1-Ig 20 nM; read-out: HTRF IC50.
On to `CCCC[C@H]1C(=O)N(C)[C@@H](CCCC)C(=O)N[C@@H](CC(C)C)C(=O)N[C@H](C(=O)NCC(N)=O)CSCC(=O)N[C@@H](Cc2ccc(O)cc2)C(=O)N(C)[C@@H](C)C(=O)N[C@@H](CC(N)=O)C(=O)N2CCC[C@H]2C(=O)N[C@@H](CNC(=S)Nc2ccccc2)C(=O)N[C@@H](CC(C)C)C(=O)N2C[C@H](O)C[C@H]2C(=O)N[C@@H](Cc2c[nH]c3ccccc23)C(=O)N[C@@H](CCNC(=S)Nc2ccccc2)C(=O)N[C@@H](Cc2cn(CC(=O)O)c3ccccc23)C(=O)N1C` [Example 1001] ({CH2CO}-Y[NMeA]NP[Dap](X26)L[Hyp]W[Dab](X26)[Trp(1-CH2COOH)][NMeNle][NMeNle]LCG-NH2; thioether N-14), for which the pIC50 is 8.72.

In the case of `CCCC[C@H]1C(=O)N(C)[C@@H](CCCC)C(=O)N[C@@H](CC(C)C)C(=O)N[C@H](C(=O)NCC(N)=O)CSCC(=O)N[C@@H](Cc2ccc(O)cc2)C(=O)N(C)[C@@H](C)C(=O)N[C@@H](CC(N)=O)C(=O)N2CCC[C@H]2C(=O)N[C@@H](CNC(=O)c2cnccn2)C(=O)N[C@@H](CC(C)C)C(=O)N2C[C@H](O)C[C@H]2C(=O)N[C@@H](Cc2c[nH]c3ccccc23)C(=O)N[C@@H](CCNC(=O)c2cnccn2)C(=O)N[C@@H](Cc2cn(CC(=O)OC)c3ccccc23)C(=O)N1C` [Example 1002] ({CH2CO}-Y[NMeA]NP[Dap](Pyrazinecarbonyl)L[Hyp]W[Dab](Pyrazinecarbonyl)[Trp(1-CH2CO2Me)][NMeNle][NMeNle]LCG-NH2; thioether N-14), the pIC50 is 8.46.

Consider `CCCC[C@H]1C(=O)N(C)[C@@H](CCCC)C(=O)N[C@@H](CC(C)C)C(=O)N[C@H](C(=O)NCC(N)=O)CSCC(=O)N[C@@H](Cc2ccc(O)cc2)C(=O)N(C)[C@@H](C)C(=O)N[C@@H](CC(N)=O)C(=O)N2CCC[C@H]2C(=O)N[C@@H](CNC(=O)N(c2ccccc2)c2ccccc2)C(=O)N[C@@H](CC(C)C)C(=O)N2C[C@H](O)C[C@H]2C(=O)N[C@@H](Cc2c[nH]c3ccccc23)C(=O)N[C@@H](CCNC(=O)N(c2ccccc2)c2ccccc2)C(=O)N[C@@H](Cc2cn(CC(=O)OC)c3ccccc23)C(=O)N1C` [Example 1004] ({CH2CO}-Y[NMeA]NP[Dap]([CO-X22])L[Hyp]W[Dab]([CO-X22])[Trp(1-CH2CO2Me)][NMeNle][NMeNle]LCG-NH2; thioether N-14), for which the negative-log IC50 (pIC50) was 7.64.

In the case of `CCCC[C@H]1C(=O)N(C)[C@@H](CCCC)C(=O)N[C@@H](CC(C)C)C(=O)N[C@H](C(=O)NCC(N)=O)CSCC(=O)N[C@@H](Cc2ccc(O)cc2)C(=O)N(C)[C@@H](C)C(=O)N[C@@H](CC(N)=O)C(=O)N2CCC[C@H]2C(=O)N[C@@H](CNC(=O)c2ccc(F)c(C(F)(F)F)c2)C(=O)N[C@@H](CC(C)C)C(=O)N2C[C@H](O)C[C@H]2C(=O)N[C@@H](Cc2c[nH]c3ccccc23)C(=O)N[C@@H](CCNC(=O)c2ccc(F)c(C(F)(F)F)c2)C(=O)N[C@@H](Cc2cn(CC(=O)OC)c3ccccc23)C(=O)N1C` [Example 1007] ({CH2CO}-Y[NMeA]NP[Dap](Benzoyl(4-F,3-CF3))L[Hyp]W[Dab](Benzoyl(4-F,3-CF3))[Trp(1-CH2CO2Me)][NMeNle][NMeNle]LCG-NH2; thioether N-14), the negative logarithm of the IC50 (pIC50) is 7.49.

Take `CCCC[C@H]1C(=O)N(C)[C@@H](CCCC)C(=O)N[C@@H](CC(C)C)C(=O)N[C@H](C(=O)NCC(N)=O)CSCC(=O)N[C@@H](Cc2ccc(O)cc2)C(=O)N(C)[C@@H](C)C(=O)N[C@@H](CC(N)=O)C(=O)N2CCC[C@H]2C(=O)N[C@@H](CNC(=O)c2sc(-c3cccnc3)nc2C)C(=O)N[C@@H](CC(C)C)C(=O)N2C[C@H](O)C[C@H]2C(=O)N[C@@H](Cc2c[nH]c3ccccc23)C(=O)N[C@@H](CCNC(=O)c2sc(-c3cccnc3)nc2C)C(=O)N[C@@H](Cc2cn(CC(=O)OC)c3ccccc23)C(=O)N1C` [Example 1008] ({CH2CO}-Y[NMeA]NP[Dap](X53)L[Hyp]W[Dab](X53)[Trp(1-CH2CO2Me)][NMeNle][NMeNle]LCG-NH2; thioether N-14): the negative logarithm of the IC50 (pIC50) was 8.12.

On to `CCCC[C@H]1C(=O)N(C)[C@@H](CCCC)C(=O)N[C@@H](CC(C)C)C(=O)N[C@H](C(=O)NCC(N)=O)CSCC(=O)N[C@@H](Cc2ccc(O)cc2)C(=O)N(C)[C@@H](C)C(=O)N[C@@H](CC(N)=O)C(=O)N2CCC[C@H]2C(=O)N[C@@H](CNC(=O)Nc2ccccc2)C(=O)N[C@@H](CC(C)C)C(=O)N2C[C@H](O)C[C@H]2C(=O)N[C@@H](Cc2c[nH]c3ccccc23)C(=O)N[C@@H](CCNC(=O)Nc2ccccc2)C(=O)N[C@@H](Cc2cn(CC(=O)O)c3ccccc23)C(=O)N1C` [Example 1009] ({CH2CO}-Y[NMeA]NP[Dap]([CO-NHPh])L[Hyp]W[Dab]([CO-NHPh])[Trp(1-CH2COOH)][NMeNle][NMeNle]LCG-NH2; thioether N-14), for which the negative logarithm of the IC50 (pIC50) is 8.19.

As for `CCCC[C@H]1C(=O)N(C)[C@@H](CCCC)C(=O)N[C@@H](CC(C)C)C(=O)N[C@H](C(=O)NCC(N)=O)CSCC(=O)N[C@@H](Cc2ccc(O)cc2)C(=O)N(C)[C@@H](C)C(=O)N[C@@H](CC(N)=O)C(=O)N2CCC[C@H]2C(=O)N[C@@H](CNC(=S)Nc2ccc(OC(F)(F)F)cc2)C(=O)N[C@@H](CC(C)C)C(=O)N2C[C@H](O)C[C@H]2C(=O)N[C@@H](Cc2c[nH]c3ccccc23)C(=O)N[C@@H](CCNC(=S)Nc2ccc(OC(F)(F)F)cc2)C(=O)N[C@@H](Cc2cn(CC(=O)O)c3ccccc23)C(=O)N1C` [Example 1010] ({CH2CO}-Y[NMeA]NP[Dap](X25)L[Hyp]W[Dab](X25)[Trp(1-CH2COOH)][NMeNle][NMeNle]LCG-NH2; thioether N-14), the negative-log IC50 (pIC50) is 8.15.
